We go through 6 compounds from patent publication US7329680B2, “Heterocycle substituted carboxylic acids” (The Institute for Pharmaceutical Discovery, LLC, priority 2003, dated 2008).

For the compound `O=C(O)[C@@H]1CSC(c2ccc(-c3ccc(-c4c(Cc5ccccc5)oc5ccccc45)cc3)cc2)N1` (mixture of isomers) [Example 38, (2RS,4R)-2-[4′-(2-Benzylbenzofuran-3-yl)biphen-4-yl]thiazolidine-4-carboxylic acid], the melting point is 148 °C (dec.).

In the case of `O=C(O)[C@@H]1CSC(c2ccc(-c3ccc(-n4ccc5ccccc54)cc3)cc2)N1` (stereo in doubt) [Example 27, 2-(4′-Indol-1-yl-biphen-4-yl)thiazolidine-4-carboxylic acid], the melting point is 135 to 137 °C (dec.).

Consider `O=C(O)C(=O)Nc1cc(-c2ccc(-c3cccc4c3oc3ccccc34)cc2)cn(Cc2ccccc2)c1=O` [Example 4, N-[1-Benzyl-5-(4-dibenzofuran-4-yl-phenyl)-2-oxo-1,2-dihydro-pyridin-3-yl]-oxalamic acid], for which the melting point was 220 to 223 °C.

Take `CCc1ccc(-c2sc(NC(=O)c3ccc(S(=O)(=O)N4CCCC4C(=O)O)cc3)nc2-c2ccc(Cl)cc2)cc1` (stereo not drawn) [Example 5, 1-{4-[4-(4-Chloro-phenyl)-5-(4-ethyl-phenyl)-thiazol-2-ylcarbamoyl]-benzenesulfonyl}-pyrrolidine-2-carboxylic acid]: the melting point fell in the range of 289 to 292 °C.

With `O=C(O)CCNc1cc(-c2ccc(-c3cccc4c3oc3ccccc34)cc2)nc(Cc2ccccc2)n1` [Example 45, 3-[2-Benzyl-6-(4-dibenzofuran-4-yl-phenyl)-pyrimidin-4-ylamino]-propionic acid], the melting point is 205 °C (dec.).

As for `O=C(O)CCNc1cc(-c2ccc(-c3cccc4c3oc3ccccc34)cc2)nc(-c2ccccc2)n1` [Example 46, 3-[2-phenyl-6-(4-dibenzofuran-4-yl-phenyl)-pyrimidin-4-ylamino]-propionic acid], the melting point was 210 °C (dec.).

What is called melting point is the temperature of the solid-liquid transition.
